Legend:
potassium channels = potassium channels (Sus scrofa, UniProt F1SR11); test: Functional potassium channel opening activity in isolated Landrace pig bladder strips (field-stimulated twitch); details: for Landrace Pig Bladder Index: ED50 for P1075 divided by ED50 for the test agonist, averaged over tissues; for Landrace Pig Bladder pD2: negative logarithm of ED50; for Emax: pig, maximal efficacy relative to P1075, field stimulation 0.05Hz, 0.5 milli-seconds at 20 volts
Protocol: The entire bladder was removed and ed into Krebs Ringer bicarbonate solution (composition, mM: NaCl,; dextrose, 1; KCl, 4.7; […] Propranolol (0.004 ed in all of the assays to block […]. The trigonal and dome […]. Strips 3-5 mm wide and 20 mm long were prepared from the cut in a circular fashion. The mucosal layer was removed. One end ationary glass rod and the other to a Grass FT03 transducer at a basal am. Two parallel platinum electrodes were included in the stationary ide field stimulation of 0.05Hz, 0.5 milli-seconds at 20 volts. […] Tissues were allowed to equilibrate for at least 60 minutes and primed with 80 mM KCl. A control concentration response curve (cumulative) was generated for each tissue using the potassium channel opener […] as the control agonist. […] After a 60 minute rinsing period, a concentration response curve (cumulative) was generated for the test agonist in the same fashion as that used for the control agonist […]. The maximal efficacy of each compound (expressed as % relative to […]) is reported. […] J. Physiol. 235, E97 (1980)), and agonist potencies were expressed as pD2 (the negative logarithm). Agonist potencies were also expressed as an index relative to […]. The index was calculated by dividing the ED50 for […] by the ED50 for the test agonist in a given tissue. Each tissue was used for only one test agonist, and the indices obtained from each tissue were averaged to provide an average index of potency.

Compound	melting point	Landrace Pig Bladder Index (potassium channels)	Landrace Pig Bladder pD2 (potassium channels)	Emax (potassium channels) [%]
O=C1CCC2=C1C(c1ccc(Cl)c(Cl)c1)C1=C(CCS1(=O)=O)N2 (single isomer, unassigned) [Example 145]	> 250 °C			
O=C1CCC2=C1C(c1ccc(Cl)c([N+](=O)[O-])c1)C1=C(CCS1(=O)=O)N2 (single isomer, unassigned) [Example 160]	> 250 °C			
O=C1CCCC2=C1C(c1ccc(F)c(Cl)c1)C1=C(CCS1(=O)=O)N2 (single isomer, unassigned; (+)) [Example 109, (+)-9-(3-chloro-4-fluorophenyl)-2,3,5,6,7,9-hexahydrothieno[3,2-b]quinolin-8(4H)-one, 1,1-dioxide]	> 250 °C	0.36	6.6	100
O=C1CCCC2=C1C(c1ccc(F)c(C(F)(F)F)c1)C1=C(CCS1(=O)=O)N2 (single isomer, unassigned; (+)) [Example 138, (+)-9-[4-fluoro-3-(trifluoromethyl)phenyl]-2,3,5,6,7,9-hexahydrothieno[3,2-b]quinolin-8(4H)-one, 1,1-dioxide]	> 250 °C			
N#Cc1cccc(C2C3=C(CCC3=O)NC3=C2S(=O)(=O)CC3)c1 (single isomer, unassigned; (-)) [Example 162]	> 250 °C			
N#Cc1cccc(C2C3=C(CCC3=O)NC3=C2S(=O)(=O)CC3)c1 (stereo not drawn) [Example 52, 8-(3-cyanophenyl)-2,3,4,5,6,8-hexahydro-7H-cyclopenta[b]thieno [2.3-e]pyridin-7-one, 1,1-dioxide]	156 to 176 °C	0.018	5.6	100
O=C1CCC2=C1C(c1cccc([N+](=O)[O-])c1)C1=C(CCCS1(=O)=O)N2 (stereo not drawn) [Example 55, 3,4,5,6,7,9-hexahydro-9-(3-nitrophenyl)cyclopenta[b]thiopyrano [2,3-e]pyridin-8(2H)-one, 1,1-dioxide]	> 260 °C			
O=C1CCC2=C1C(c1ccc(F)c(Br)c1)C1=C(CCS1(=O)=O)N2 (stereo not drawn) [Example 56, 8-(3-bromo-4-fluorophenyl)-2,3,4,5,6,8-hexahydro-7H-cyclopenta[b]thieno[2,3-e]pyridin-7-one, 1,1-dioxide]	> 260 °C	0.88	7.1	97
O=C1CCC2=C1C(c1ccc(F)c(C(F)(F)F)c1)C1=C(CCS1(=O)=O)N2 (stereo not drawn) [Example 57, 8-(4-fluoro-3-trifluoromethylphenyl)-2,3,4,5,6,8-hexahydro-7H-cyclopenta[b]thieno [2.3-e]pyridin-7-one, 1,1-dioxide]	254 °C	0.42	6.8	100
O=[N+]([O-])c1cccc(C2C3=C(CCCS3(=O)=O)NC3=C2S(=O)(=O)CCC3)c1 [Example 59, 3,4,6,7,8,10-hexahydro-10-(3-nitrophenyl)-2H,5H-dithiopyrano [3.2-b:2′,3′-e]pyridine, 1,1,9,9-tetraoxide]	> 260 °C			
O=C1CCC2=C1C(c1ccc(Cl)c(Cl)c1)C1=C(CCS1(=O)=O)N2 (stereo not drawn) [Example 60, 8-(3 4-dichlorophenyl)-2,3 4,5,6,8-hexahydro-7H-cyclopenta[b]thieno [2,3-e]pyridin-7-one, 1,1-dioxide]	> 260 °C	0.60	6.9	100
N#Cc1cccc(C2C3=C(CCS3(=O)=O)NC3=C2S(=O)(=O)CC3)c1 [Example 62, 8-(3-cyanophenyl)-2,3,4,5,6,8-hexahydrodithieno [3.2-b:2′,3′-e]pyridine. 1,1,7,7-tetraoxide]	248 °C			
O=C1CCC2=C1C(c1cccc(Br)c1)C1=C(CCS1(=O)=O)N2 (stereo not drawn) [Example 64, 8-(3-bromophenyl)-2,3,4,5,6,8-hexahydro-7H-cyclopenta[b]thieno [2,3-e]pyridin-7-one, 1,1-dioxide]	246 °C			
O=S1(=O)CCC2=C1C(c1ccc(F)c(C(F)(F)F)c1)C1=C(CCS1(=O)=O)N2 [Example 65]	> 260 °C	0.048	6.0	100
O=C1CCC2=C1C(c1cc(Br)cs1)C1=C(CCS1(=O)=O)N2 (stereo not drawn) [Example 67]	254 to 255 °C			
O=C1CCC2=C1C(c1ccc(Br)s1)C1=C(CCS1(=O)=O)N2 (stereo not drawn) [Example 68]	246 to 247 °C			
CC1=C(S(C)(=O)=O)C(c2ccc(Cl)c(Cl)c2)C2=C(CCC2=O)N1 (stereo not drawn) [Example 75, 4-(3,4-dichlorophenyl)-1,4,6,7-tetrahydro-2-methyl-3-(methylsulfonyl)-5H-cyclopentafblpyridin-5-one]	218 to 220 °C			
CC1=C(S(C)(=O)=O)C(c2ccc(Cl)c([N+](=O)[O-])c2)C2=C(CCC2=O)N1 (stereo not drawn) [Example 76, 4-(4-chloro-3-nitrophenyl)-1,4,6,7-tetrahydro-2-methyl-3-,(methylsulfonyl)-5H-cyclopenta[b]pyridin-5-one]	232 °C			

Compound	melting point	Landrace Pig Bladder Index (potassium channels)	Landrace Pig Bladder pD2 (potassium channels)	Emax (potassium channels) [%]
O=C1CCC2=C1C(c1ccc(Br)cc1)C1=C(CCS1(=O)=O)N2 (stereo not drawn) [Example 78]	253 to 256 °C			
O=C1CCC2=C1C(c1ccc(F)c(F)c1)C1=C(CCS1(=O)=O)N2 (stereo not drawn) [Example 79]	> 260 °C			
O=C1CCC2=C1C(c1ccc(Cl)c(F)c1)C1=C(CCS1(=O)=O)N2 (stereo not drawn) [Example 80]	> 260 °C			
N#Cc1cc(C2C3=C(CCS3(=O)=O)NC3=C2S(=O)(=O)CC3)ccc1F [Example 82]	275 to 280 °C (dec.)			
O=C1CCCC2=C1C(c1ccc(F)c(I)c1)C1=C(CCS1(=O)=O)N2 (stereo not drawn) [Example 89, 9-(4-fluoro-3-iodophenyl)-2,3,5,6,7,9-hexahydrothieno [3.2-b]quinolin-8(4H)-one, 1,1-dioxide]	> 250 °C			
O=C1CCC2=C1C(c1ccc(F)c(I)c1)C1=C(CCS1(=O)=O)N2 (stereo not drawn) [Example 90]	> 250 °C			
Cc1cc(C2C3=C(CCCC3=O)NC3=C2S(=O)(=O)CC3)ccc1F (stereo not drawn) [Example 111, 9-(4-fluoro-3-methylphenyl)-2,3,5,6,7,9-hexahydrothieno[3,2-b]quinolin-8(4H)-one, 1,1-dioxide]	> 260 °C			
O=C1CCCC2=C1C(c1cccnc1)C1=C(CCS1(=O)=O)N2 (stereo not drawn) [Example 117, 9-(3-pyridinyl)-2,3,5,6,7,9-hexahydrothieno[3,2-b]quinolin-8(4H)-one, 1,1-dioxide]	> 250 °C			
O=C1CCCC2=C1C(c1ccncc1)C1=C(CCS1(=O)=O)N2 (stereo not drawn) [Example 118, 9-(4-pyridinyl)-2,3.5,6,7,9-hexahydrothieno[3,2-b]quinolin-8(4H)-one, 1,1-dioxide]	> 250 °C			
O=C1CCCC2=C1C(c1cc(Cl)ccc1O)C1=C(CCS1(=O)=O)N2 (stereo not drawn) [Example 120, 9-(5-chloro-2-hydroxyphenyl)-2,3,5,6,7,,9-hexahydrothieno[3 .2-b]guinolin-8(4H)-one, 1. I -dioxide]	> 250 °C			
CC1(C)CCC2=C(C1=O)C(c1ccc(Cl)c(Cl)c1)C1=C(CCS1(=O)=O)N2 (stereo not drawn) [Example 127, 9-(3,.4-dichlorophenyl)-7,7-dimethyl-2,3.5,.6,7,9-hexahydrothieno[3,*2-b Iquinolin-8(4H)-one, 1,1-dioxide]	262 to 265 °C (dec.)			
O=C1CCCC2=C1C(c1ccc(Br)s1)C1=C(CCS1(=O)=O)N2 (stereo not drawn) [Example 128, 9-(5-bromo-2-thienyl)-2,3,5,6,7,9-hexahydrothieno[3,2-b]quinolin-8(4H)-one, 1,1-dioxide]	> 250 °C			
O=C1CCCC2=C1C(c1cc(Br)cs1)C1=C(CCS1(=O)=O)N2 (stereo not drawn) [Example 129, 9-(4-bromo-2-thienyl)-2,3,5,6,7,9-hexahydrothieno[3,2-b]quinolin-8(4H)-one, 1,1-dioxide]	> 250 °C			
O=C1CCCC2=C1C(c1ccc(Br)c(Br)c1)C1=C(CCS1(=O)=O)N2 (stereo not drawn) [Example 137, 9-(3 4-dibromophenyl)-2,3,5,6,79-hexahydrothieno[3,2-b]quinolin-8(4H)-one 1 1-dioxide]	> 250 °C			
O=C1CCCC2=C1C(c1ccc(Cl)c(C(F)(F)F)c1)C1=C(CCS1(=O)=O)N2 (stereo not drawn) [Example 151, 9-[4-chloro-3-(trifluoromethyl)phenyl]-2,3,5,6,7,9-hexahydrothieno [32-b]quinolin-8(4H)-one, 1,1-dioxide]	> 250 °C			
O=S1(=O)CCC2=C1C(c1ccc(F)c(Cl)c1)C=C(C(F)(F)F)N2 (stereo not drawn) [Example 163, 7-(3-chloro-4-fluorophenyl)-5-(trifluoromethyl)-2,3,4,7-tetrahydrothieno[3,2-b]pyridine, 1,1-dioxide]	180 to 183 °C			
N#Cc1ccc(C2C3=C(CCCC3=O)NC3=C2S(=O)(=O)CC3)s1 (stereo not drawn) [Example 175, 9-(5-cyano-2-thienyl)-2,3,5,6,7,9-hexahydrothieno[3,2-b]guinolin-8(4H)-one, 1,1-dioxide]	> 250 °C			
CC1(C)CCC(=O)C2=C1NC1=C(C2c2ccc(F)c(Br)c2)S(=O)(=O)CC1 (stereo not drawn) [Example 212]	> 270 °C			

From US6593335B1, “Potassium channel openers” (Abbott Laboratories, priority 1997, dated 2003)
